Results from article PMC6155388, “Chemical Constituents of Smilax china L. Stems and Their Inhibitory Activities against Glycation, Aldose Reductase, α-Glucosidase, and Lipase” (Molecules : A Journal of Synthetic Chemistry and Natural …, 2017).

Tests used:
AGEs formation = AGEs formation inhibition assay (BSA with fructose and glucose, fluorescence); assay type: biochemical; conditions: mean ± SD (n = 3); for IC50: isolated compounds, tested 10–500 µM
Description: In accordance with a reported protocol with slight modifications, a reaction mixture of bovine serum albumin (10 mg/mL, Sigma Aldrich) in 50 mM phosphate buffer (pH 7.4) with 0.02% sodium azide was added to 0.4M fructose and glucose. The reaction mixture (270 μL) was added to 30 μL of sequentially diluted compounds or the positive control, AMG. Each sample of extract, hexane, water fractions, EAF, NBF, and compounds 1–10 were dissolved in DMSO for the AGEs assay at five different final concentrations (10–500 µg/mL for extracts and fractions or 10–500 µM for isolated constituents). After 48 h of incubation at 60 °C, 200 μL of the reaction products was taken to 96-well plates and its fluorescence was measured using a spectrofluorometric detector (FlexStation 3, HTRF® Chemistry) at an excitation wavelength of 350 nm and an emission wavelength of 450 nm. DMSO was used as negative control instead of the sample. The IC50 values and 95% confidence intervals were obtained via regression analysis. The percentage of inhibition (%) was calculated by the following equation, where Ac stands for the fluorescence of the control and As stands for the fluorescence of the sample: (1) Inhibition(%)=Ac−As/Ac×100

[1] = molecular target: T1, rat lens aldose reductase (Rattus norvegicus, UniProt P07943); experiment: AR assay (rat lens homogenate, decrease in β-NADPH absorption); assay type: biochemical, Sprague-Dawley rats; conditions: mean ± SD (n = 3); for IC50: isolated compounds, tested 0.1–100 µM
T1 construct: The rat lenses were homogenized and centrifuged at 10,000 rpm (4 °C, 20 min) and the supernatant was used as an enzyme source; from tissue; host or cells: rat lens (Sprague-Dawley)
Description: Lenses (one lens per 0.5 mL sodium buffer) were removed from Sprague-Dawley rats (weight 250–280 g) and stored in a deep freezer at −80 °C until use. The rat lenses were homogenized and centrifuged at 10,000 rpm (4 °C, 20 min) and the supernatant was used as an enzyme source [65]. AR activity was spectrophotometrically calculated by measuring the decrease in β-NADPH absorption rate at 340 nm for a 4 min period at 25 °C in a 96-well plate using the same detector device used in the AGEs assay. The assay mixture (300 µL) contained 0.1 M potassium phosphate buffer (pH 7.0), 0.1 M sodium phosphate buffer (pH 6.2), 1.6 mM β-NADPH, and test samples with 0.025 M of DL-glyceraldehyde as substrate. […] IC50 values were determined using the least-squares regression line of log concentration plotted against residual activity. TMG, a typical AR inhibitor, was used as the positive control. A negative control was fulfilled by using DMSO instead of the sample.

[2] = molecular target: T2, porcine pancreatic lipase (Sus scrofa, UniProt P00591); experiment: Lipase inhibition assay (p-NPB); assay type: biochemical; conditions: isolated compounds; tested 10–2000 µM; mean ± SD (n = 3)
T2 construct: purchased Sigma-Aldrich Co. Type II
T2 sequence (P00591 1-450): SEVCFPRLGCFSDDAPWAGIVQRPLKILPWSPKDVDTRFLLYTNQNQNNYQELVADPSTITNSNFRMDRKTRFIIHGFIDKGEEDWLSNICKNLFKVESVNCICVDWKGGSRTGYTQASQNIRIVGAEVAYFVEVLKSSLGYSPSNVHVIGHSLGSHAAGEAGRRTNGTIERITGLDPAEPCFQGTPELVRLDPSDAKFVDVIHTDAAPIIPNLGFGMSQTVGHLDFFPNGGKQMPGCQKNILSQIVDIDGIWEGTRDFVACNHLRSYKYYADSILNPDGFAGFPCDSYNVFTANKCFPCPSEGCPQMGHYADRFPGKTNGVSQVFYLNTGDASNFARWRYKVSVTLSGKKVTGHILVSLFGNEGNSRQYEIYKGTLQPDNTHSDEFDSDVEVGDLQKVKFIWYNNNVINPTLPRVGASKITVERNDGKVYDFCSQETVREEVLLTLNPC
Description: Lipase inhibition activity was evaluated according to a slightly modified method of de Camargo et al. [66]. The substrate used was p-nitrophenyl butyrate (p-NPB), which is converted to p-nitro-phenol in the presence of lipase, giving a yellow color that can be used to quantify the extent of the reaction. Type II porcine pancreatic lipase was used at a concentration of 5 mg/mL. The substrate (p-NPB) was prepared in DMSO to achieve a concentration of 5 mM. Tested samples, dissolved in 10% DMSO at five different final concentrations (0.05–5.0 mg/mL for extracts and fractions or 10–2000 µM for isolated constituents), were mixed with Tris–HCl buffer (pH 7.4), and enzyme solution, with a total reaction mixture volume of 840 μL. After incubation at 37 °C for 15 min, p-NPB was added, and the solution was further incubated at 37 °C for 25 min. Then, the mixture was cooled for 2 min, and 200 μL was transferred to a 96-well plate. Absorbance was measured using the SUNRISE microplate reader. Blanks, in which enzymes were replaced with Tris–HCl buffer, were prepared for background corrections. […] The inhibition rate of lipase activity was also calculated using Equation (1).

[3] = molecular target: α-glucosidase from Saccharomyces cerevisiae; experiment: α-Glucosidase inhibition assay (p-NPG); assay type: biochemical; conditions: isolated compounds; tested 1–1000 µM; mean ± SD (n = 3)
Description: This enzyme inhibition assay was carried out by using a 96-well microplate reader and a spectrophotometer. The reaction volume (60 μL) contained 100 mM phosphate buffer (pH 6.8), 2.5 mM p-nitrophenyl α-D-glucopyranoside (p-NPG), and sample dissolved in 10% DMSO at five different final concentrations (5–100 µg/mL for extracts and fractions or 1–1000 µM for isolated constituents). A chromogenic substance was used for quantification purposes. The mixture solution was added to each well, then, 20 μL of 10 mM phosphate buffer (pH 6.8) containing 0.2 U/mL α-glucosidase was added. The plate was incubated at 37 °C for 15 min, then, 80 μL of 0.2 mol/L sodium carbonate solution was added to stop the reaction. Absorbance was measured at 405 nm immediately after reaction cessation by using a SUNRISE microplate reader (Tecan Austria GmbH, Grodig, Austria). The negative control contained the same reaction mixture with phosphate buffer substituted for the sample solution. […] The inhibition rate of α-glucosidase activity was calculated using the same equation (1) used for inhibition of AGEs formation, but absorbance was measured instead of fluorescence.

[4] = ND: no detection within test concentration
[5] = 70% MeOH stem extracts of Smilacaceae plants

Row | SMILES | IC50 (AGEs formation) [µM] | IC50 [1, 4] [µM] | IC50 [2] [µM] | IC50 [3] [µM] | AGEs IC50 (AGEs formation; [5]) [µg/mL] | AGEs IC50 (AGEs formation; SCS extract and solvent fractions, tested 10–500 µg/mL, ND: no detection within test concentration) [µg/mL] | Aldose Reductase IC50 [1, 5] [µg/mL] | Aldose Reductase IC50 ([1]; SCS extract and solvent fractions, tested 10–100 µg/mL, ND: no detection within test concentration) [µg/mL]
1 | O=C(/C=C/c1ccc(O)c(O)c1)OC1CC(O)(C(=O)O)CC(O)C1O (stereo not drawn) [3-O-Caffeoylquinic acid (3), 3-O-Caffeoylquinic acid] | 80.5 ± 5.5 | 0.6 ± 0.03 | > 1000 | – | – | – | – | –
2 | O=C(/C=C/c1ccc(O)c(O)c1)OC1C(O)CC(O)(C(=O)O)CC1O (stereo not drawn) [4-O-Caffeoylquinic acid (4), 4-O-Caffeoylquinic acid] | 74.1 ± 3.1 | – | > 1000 | 736 ± 15 | – | – | – | –
3 | O=C(/C=C/c1ccc(O)c(O)c1)OC1CC(O)(C(=O)O)CC(O)C1O (stereo not drawn) [5-O-Caffeoylquinic acid (2), 5-O-Caffeoylquinic acid] | 215 ± 18 | 87.5 ± 1.6 | 474 ± 35 | – | – | – | – | –
4 | N=C(N)NN [AMG, aminoguanidine, reference compound] | 515 ± 33 | – | – | – | 54.8 ± 2.1 | 54.8 ± 2.1 | – | –
5 | C[C@@H]1O[C@@H](Oc2c(-c3ccc(O)cc3)oc3cc(O)cc(O)c3c2=O)[C@H](O)[C@H](O)[C@H]1O [Afzelin (7), Kaempferol 3-O-α-L-rhamnoside] | 75.4 ± 3.8 | – | – | – | – | – | – | –
6 | COc1cc(/C=C/C(=O)OC[C@H]2O[C@@](CO)(O[C@H]3O[C@H](CO)[C@@H](O)[C@H](O)[C@H]3O)[C@@H](OC(=O)/C=C/c3ccc(O)c(OC)c3)[C@@H]2O)ccc1O [Helonioside A (9)] | 227 ± 16 | 34.5 ± 0.1 | > 1000 | 154 ± 4 | – | – | – | –
7 | CC1OC(Oc2c(O)cc(O)c3c(=O)cc(-c4ccc(O)cc4)oc23)C(O)C(O)C1O (stereo not drawn) [Isoscutellarein-8-O-rhamnoside (10), Isoscutellarein 8-O-rhamnoside] | 440 ± 17 | 17 ± 3.6 | 101 ± 18 | 45.1 ± 2.6 | – | – | – | –
8 | CC1OC(Oc2cc(O)c3c(=O)c(OC4OC(CO)C(O)C(O)C4O)c(-c4ccc(O)cc4)oc3c2)C(O)C(O)C1O [Kaempferol 3-O-β-D-glucopyranosyl-7-O-α-L-rhamnopyranoside] | 193 ± 9 | 9.38 ± 1.46 | > 1000 | 609 ± 32 | – | – | – | –
9 | O=C(O)c1ccc(O)c(O)c1 [Protocatechuic acid (1), Protocatechuic acid] | 418 ± 10 | – | 22.9 ± 0.8 | 176 ± 7 | – | – | – | –
10 | C[C@@H]1O[C@@H](Oc2c(-c3ccc(O)c(O)c3)oc3cc(O)cc(O)c3c2=O)[C@H](O)[C@H](O)[C@H]1O [Quercitrin (6), Quercetin 3-O-α-L-rhamnoside] | 58 ± 2.5 | 0.56 ± 0.14 | 96.7 ± 7 | 135 ± 13 | – | – | – | –
11 | O=C(O)CC1(CC(=O)O)CCCC1 [TMG, 3,3′-tetramethyleneglutaric acid, reference compound] | – | 6.97 ± 0.56 | – | – | – | – | 1.30 ± 0.10 | 1.30 ± 0.10
12 | Oc1ccc(/C=C/c2cc(O)cc(O)c2)cc1 [trans-Resveratrol (8), 3,5,4′-Trihydroxy-trans-stilbene] | 148 ± 14 | 60.5 ± 16.8 | 61.2 ± 11.7 | 5.97 ± 0.2 | – | – | – | –
